Source: ChEMBL document CHEMBL5380850, “Discovery of the First Raptor (Regulatory-Associated Protein of mTOR) Inhibitor as a New Type of Antiadipogenic Agent” (J Med Chem, 2023)
The source made the active and inactive calls. The calls are words filed in the database; no cut-off is given here.

Assays:
mTORC1 (Mus musculus) [1] = molecular target: mTORC1 (Mus musculus) (UniProt Q9JLN9); test: Inhibition of mTORC1 formation in mouse 3T3-L1 cells assessed as decrease in Raptor/mTOR interaction at 10 uM incubated for 24 hrs by reciprocal co-immunoprecipitation assay; format: cell-based
Mus musculus [2] = test: Anti-obesity activity in high fat diet-induced obese C57BL/6J mouse model assessed as increase in PGC-1alpha expression level in brown adipocyte at 40 mg/kg, ip administered every two days for 46 days by immunohistochemical analysis; format: functional, organism-based; conditions: time 46.0 day
3T3-L1 [3] = test: Anti-adipogenic activity against mouse 3T3-L1 cells at terminal differentiation stage assessed as decrease in triglyceride level at 1 uM and measured on 6 to 9 days by Oil Red O staining based spectroscopic analysis; format: functional, cell-based; conditions: time 6-9 day
Mus musculus [4] = test: Anti-obesity activity in high fat diet-induced obese C57BL/6J mouse model assessed as reduction in hepatic triglyceride level at 40 mg/kg, ip administered every two days for 46 days; format: functional, organism-based; conditions: time 46.0 day
3T3-L1 [5] = test: Anti-adipogenic activity in SiRNA mediated Raptor knockdown mouse 3T3-L1 cells assessed as C/EBPalpha expression level at 10 uM by Western blot analysis; format: functional, cell-based
3T3-L1 [6] = test: Anti-adipogenic activity in siRNA-mediated LC3B knockdown mouse 3T3-L1 cells assessed as decrease in triglyceride level at 10 uM by Oil Red O staining based microscopic analysis; format: functional, cell-based
mTORC1 (Mus musculus) [7] = molecular target: mTORC1 (Mus musculus) (UniProt Q9JLN9); test: Inhibition of mTORC1 formation in mouse 3T3-L1 cells assessed as mTOR expression level at 10 uM incubated for 24 hrs by reciprocal co-immunoprecipitation assay; format: cell-based
3T3-L1 [8] = test: Anti-adipogenic activity against mouse 3T3-L1 cells assessed as downregulation of DGAT2 mRNA expression level at 0.1 to 1 uM incubated for 6 days by RT-qPCR analysis; format: functional, cell-based; conditions: dose 0.1-1 µM, time 6.0 day
mTORC1 (Mus musculus) [9] = molecular target: mTORC1 (Mus musculus) (UniProt Q9JLN9); test: Inhibition of mTORC1 formation in mouse 3T3-L1 cells assessed as increase in 4E-BP1 expression level at 10 uM incubated for 24 hrs by Western blot analysis; format: cell-based
mTORC1 (Mus musculus) [10] = molecular target: mTORC1 (Mus musculus) (UniProt Q9JLN9); test: Inhibition of mTORC1 formation in mouse 3T3-L1 cells assessed as Raptor expression level at 10 uM incubated for 24 hrs by reciprocal co-immunoprecipitation assay; format: cell-based
mTORC1 (Mus musculus) [11] = molecular target: mTORC1 (Mus musculus) (UniProt Q9JLN9); test: Inhibition of mTORC1 formation in mouse 3T3-L1 cells assessed as decrease in Raptor/mLST8 interaction at 10 uM incubated for 24 hrs by reciprocal co-immunoprecipitation assay; format: cell-based
3T3-L1 [12] = test: Anti-adipogenic activity against mouse 3T3-L1 cells assessed as downregulation of DGAT2 protein expression level at 0.1 to 1 uM incubated for 6 days by Western blot analysis; format: functional, cell-based; conditions: dose 0.1-1 µM, time 6.0 day
3T3-L1 [13] = test: Anti-adipogenic activity against mouse 3T3-L1 cells assessed as downregulation of FAS mRNA expression level at 0.1 to 1 uM incubated for 6 days by RT-qPCR analysis; format: functional, cell-based; conditions: dose 0.1-1 µM, time 6.0 day
3T3-L1 [14] = test: Anti-adipogenic activity against mouse 3T3-L1 cells assessed as downregulation of PPARgamma protein expression level at 0.1 to 1 uM incubated for 24 hrs by Western blot analysis; format: functional, cell-based; conditions: dose 0.1-1 µM
Mus musculus [15] = test: Anti-obesity activity in high fat diet-induced obese C57BL/6J mouse model assessed as reduction in plasma glucose level at 40 mg/kg, ip administered every two days for 14 days; format: functional, organism-based; conditions: time 14.0 day

## C=C(C)[C@@]12OC3(c4ccccc4)O[C@@H]1[C@@H]1[C@H](O)[C@](Cl)(COC(=O)c4ccccc4)[C@@H](O)[C@]4(O)C(=O)C(C)=C[C@H]4[C@@]1(O3)[C@H](C)[C@H]2OC(C)=O
mTORC1 (Mus musculus) [1]
  inhibition: inactive
Mus musculus [2]
  Activity: Active
3T3-L1 [3]
  Activity: Active
Mus musculus [4]
  Activity: Active
3T3-L1 [5]
  Activity: Active
3T3-L1 [6]
  Activity: Active
mTORC1 (Mus musculus) [7]
  inhibition: Active
3T3-L1 [8]
  Activity: Active
mTORC1 (Mus musculus) [9]
  inhibition: Active
mTORC1 (Mus musculus) [10]
  inhibition: Active
mTORC1 (Mus musculus) [11]
  inhibition: inactive
3T3-L1 [12]
  Activity: Active
3T3-L1 [13]
  Activity: Active
3T3-L1 [14]
  Activity: Active
Mus musculus [15]
  Activity: Active
